Source: paper PMC11233931, “Remodeling tumor‐associated macrophage for anti‐cancer effects by rational design of irreversible inhibition of mitogen‐activated protein kinase‐activated protein kinase 2” (MedComm, 2024)

Assays:
Experiment in all cases: Eurofins kinase selectivity profile against 380 other human recombinant kinases (Table S2)
Assay type in all cases: biochemical
[1] = target: T1, 380 human recombinant protein kinases (Homo sapiens, UniProt Q9NRM7); conditions: LATS2(h), read-out: Inhibition rate
T1 construct: purchased Eurofins (Celle Lévescault)
T1 sequence (Q9NRM7 1-1088): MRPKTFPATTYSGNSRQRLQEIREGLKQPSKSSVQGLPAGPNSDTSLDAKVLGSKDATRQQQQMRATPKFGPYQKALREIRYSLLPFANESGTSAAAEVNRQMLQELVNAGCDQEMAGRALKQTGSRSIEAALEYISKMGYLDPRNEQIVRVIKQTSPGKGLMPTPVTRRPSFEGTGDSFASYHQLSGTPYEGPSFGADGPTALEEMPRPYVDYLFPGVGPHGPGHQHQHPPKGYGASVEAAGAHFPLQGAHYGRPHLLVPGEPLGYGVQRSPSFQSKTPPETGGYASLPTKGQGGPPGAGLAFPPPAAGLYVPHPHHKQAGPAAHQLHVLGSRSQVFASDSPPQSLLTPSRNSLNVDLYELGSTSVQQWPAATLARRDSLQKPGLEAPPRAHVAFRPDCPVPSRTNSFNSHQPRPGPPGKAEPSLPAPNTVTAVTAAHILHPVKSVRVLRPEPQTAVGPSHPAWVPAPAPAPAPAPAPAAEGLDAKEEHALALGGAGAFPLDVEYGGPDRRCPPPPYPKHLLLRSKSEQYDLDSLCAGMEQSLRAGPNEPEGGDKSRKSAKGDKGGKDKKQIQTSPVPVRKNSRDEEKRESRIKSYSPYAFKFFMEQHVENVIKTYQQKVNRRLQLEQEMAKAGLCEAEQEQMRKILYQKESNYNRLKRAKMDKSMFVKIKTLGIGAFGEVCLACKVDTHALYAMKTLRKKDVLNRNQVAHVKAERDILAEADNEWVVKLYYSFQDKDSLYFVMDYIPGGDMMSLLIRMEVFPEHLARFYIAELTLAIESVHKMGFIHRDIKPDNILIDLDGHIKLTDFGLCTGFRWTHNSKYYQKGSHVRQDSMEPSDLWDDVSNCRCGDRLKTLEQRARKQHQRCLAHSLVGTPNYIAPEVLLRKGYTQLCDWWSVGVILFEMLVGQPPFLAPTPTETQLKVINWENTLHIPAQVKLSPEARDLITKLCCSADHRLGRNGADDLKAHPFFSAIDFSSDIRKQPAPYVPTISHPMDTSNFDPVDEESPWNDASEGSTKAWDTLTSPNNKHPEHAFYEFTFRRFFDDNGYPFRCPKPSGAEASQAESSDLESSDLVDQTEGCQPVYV
Procedure, shortened: (§1)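 Outsourced panel: 380 human recombinant kinases; inhibitor tested at various concentrations; purpose: MK2 selectivity check.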

[2] = target: T2, 380 human recombinant protein kinases (Homo sapiens, UniProt Q12851); conditions: GCK(h), read-out: Inhibition rate
T2 construct: purchased Eurofins (Celle Lévescault)
T2 sequence (Q12851 1-820): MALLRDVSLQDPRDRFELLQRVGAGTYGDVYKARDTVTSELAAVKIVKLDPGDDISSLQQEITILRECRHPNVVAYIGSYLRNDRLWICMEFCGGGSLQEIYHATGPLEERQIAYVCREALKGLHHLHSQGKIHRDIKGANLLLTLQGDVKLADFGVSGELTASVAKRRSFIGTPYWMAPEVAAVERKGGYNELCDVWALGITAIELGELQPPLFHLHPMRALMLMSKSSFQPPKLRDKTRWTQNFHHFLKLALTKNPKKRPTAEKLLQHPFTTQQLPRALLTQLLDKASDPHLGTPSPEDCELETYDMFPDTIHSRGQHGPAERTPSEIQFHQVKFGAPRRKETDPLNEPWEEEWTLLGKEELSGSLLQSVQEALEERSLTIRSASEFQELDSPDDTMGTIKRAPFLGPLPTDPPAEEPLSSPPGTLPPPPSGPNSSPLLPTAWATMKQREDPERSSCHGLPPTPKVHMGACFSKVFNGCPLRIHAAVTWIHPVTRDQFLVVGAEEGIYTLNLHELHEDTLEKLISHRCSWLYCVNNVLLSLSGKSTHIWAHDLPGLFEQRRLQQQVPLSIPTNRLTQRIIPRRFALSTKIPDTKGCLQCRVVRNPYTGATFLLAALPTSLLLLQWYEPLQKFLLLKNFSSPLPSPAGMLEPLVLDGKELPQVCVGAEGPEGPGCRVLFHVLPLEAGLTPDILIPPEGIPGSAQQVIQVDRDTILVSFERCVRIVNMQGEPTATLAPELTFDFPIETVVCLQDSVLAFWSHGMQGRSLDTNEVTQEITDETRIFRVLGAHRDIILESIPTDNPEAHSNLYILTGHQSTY
Procedure, shortened: as §1

[3] = target: T3, 380 human recombinant protein kinases (Homo sapiens, UniProt P25098); conditions: GRK2(h), read-out: Inhibition rate
T3 construct: purchased Eurofins (Celle Lévescault)
T3 sequence (P25098 1-689): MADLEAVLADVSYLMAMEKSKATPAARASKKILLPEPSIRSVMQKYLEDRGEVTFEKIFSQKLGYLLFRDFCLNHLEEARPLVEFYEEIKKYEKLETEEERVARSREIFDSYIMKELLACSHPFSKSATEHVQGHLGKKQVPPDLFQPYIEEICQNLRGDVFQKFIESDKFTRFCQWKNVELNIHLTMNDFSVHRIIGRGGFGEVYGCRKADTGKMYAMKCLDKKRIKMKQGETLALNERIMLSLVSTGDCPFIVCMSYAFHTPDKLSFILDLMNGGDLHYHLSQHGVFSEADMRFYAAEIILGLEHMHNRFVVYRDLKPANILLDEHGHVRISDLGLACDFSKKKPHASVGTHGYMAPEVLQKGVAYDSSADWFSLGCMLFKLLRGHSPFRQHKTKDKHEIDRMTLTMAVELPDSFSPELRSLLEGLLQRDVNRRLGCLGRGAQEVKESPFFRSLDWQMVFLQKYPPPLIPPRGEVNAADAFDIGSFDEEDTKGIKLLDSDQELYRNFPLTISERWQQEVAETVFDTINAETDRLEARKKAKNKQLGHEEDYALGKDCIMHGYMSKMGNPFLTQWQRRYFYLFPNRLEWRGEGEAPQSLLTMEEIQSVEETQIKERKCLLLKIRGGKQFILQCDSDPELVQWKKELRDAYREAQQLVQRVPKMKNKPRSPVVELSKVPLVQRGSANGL
Procedure, shortened: as §1

C=CC(=O)Nc1cc(-c2cc(-c3cc4c([nH]3)CCNC4=O)ccn2)ccc1OC(F)(F)F [compound 11]
inhibition at 0.01 µM ([1]; 10 nM): 1%
inhibition at 0.1 µM ([1]; 100 nM): 8%
inhibition at 1 µM ([1]; 1000 nM): 4%
inhibition at 0.01 µM ([2]; 10 nM): -2%
inhibition at 0.1 µM ([2]; 100 nM): -9%
inhibition at 1 µM ([2]; 1000 nM): 17%
inhibition at 0.01 µM ([3]; 10 nM): -6%
inhibition at 0.1 µM ([3]; 100 nM): -9%
inhibition at 1 µM ([3]; 1000 nM): -2%
